Tested on: not given
Experiment: not given
Details: cited from earlier work

SMILES	contraceptive effect in the clinic
C#C[C@]1(OC(=O)CCC)CCC2C3CCC4=CC(=O)CCC4C3CC[C@@]21CC (some centres unmarked) [EC600 LB, Levonorgestrel butanoate, reference compound]	failed in the clinic to reach a contraceptive effect for up to 6 month

Tested on: not given
Experiment: not given
Details: 3 month injectable product Depo Provera; cited from earlier work

SMILES	undesirable effects
CC(=O)O[C@]1(C(C)=O)CC[C@H]2[C@@H]3C[C@H](C)C4=CC(=O)CC[C@]4(C)[C@H]3CC[C@@]21C [MPA, medroxyprogesterone acetate, reference compound]	increase of insulin levels, reduction of bone mass density, weight gain and enhanced risks for HIV infections

Tested on: cycling rats of Sprague-Dawley strain
Experiment: Estrous suppression assay (long term injectable contraceptive), anti-ovulatory activity in female rat model
Assay type: in vivo
Details: 2 mg/rat, single s.c. injection of milled suspension, adult female rats, vaginal smear until cycling re-established
Experimental: A stainless steel grinding bowl with a lid and seal along with three 10 mm stainless steel balls were used to formulate suspensions for injection. The compounds were weighed and added to the grinding bowl and steel balls. 1.5 mL of formulation vehicle was added to the grinding bowl, via pipette. The milling conditions used as listed: 20 minutes, 20 Hz. After milling, the suspension was transferred to a volumetric flask. Formulation vehicle was used to dilute the milled suspension to produce the desired injection dose.
Protocol: Testing Long Term Injectable Contraceptive
Adult female rats (180-200 g body weight) were used for the study (adapted over 1 week before starting the study).
For each compound, two doses were tested (2 and 4 mg/rat).
Long acting properties of each preparation had been determined in an estrous suppression assay using virgin, mature (180-200 g) cycling rats of Sprague-Dawley strain. Upon receipt the animals were smeared daily (procedure described as below) for cyclicity and those who were showing two consecutive cycles were used for the study. Each animal was injected subcutaneously (s.c) with 0.5 ml of the test preparation (in the vehicle as described above) on the same day regardless of the stage of the cycle. Each compound was initially tested in 6 rats. Everyday excluding weekend, smears were taken starting on the day after injection and continued until such time that cornification of vaginal epithelium was observed and cycling was re-established (Bialy G, Blye R P, Enever R P, Naqvi R H, Lindberg M C. Long-acting contraceptive agents: structure activity relationships in a series of norethisterone and levonorgestrel esters. Steroids 1983, v 41, p 361).
Epithelium and lamina propria of the vagina undergo characteristic changes during the cycle. This cyclical changes was used in rodents to stage cycle diagnosis (1). During the cycle, it comes to a complete replacement of the epithelium. In order to determine the stage of the cycle, vaginal solution/mucus was collected as follows. The rat was fixed with one hand. With the other hand, a small moistened cotton swab (2-3 mm diameter) was inserted into the vagina and removed by gently rotating cell material. This was done with caution, since excessive irritation could induce a pseudopregnancy stage in animals. A drop of water on a slide was applied and dabbed the cotton swab in it. The smear was assessed under the microscope (Nikon Eclipse Ti, Magnification: 10×0.25) (Nelson J F, Felicio L S, Randall P K, Sims C, Finch C E. A longitudinal study of estrous cyclicity in aging C57BL/6J mice: I. Cycle frequency, length and vaginal cytology. Biol Reprod. 1982 September; 27(2):327-39).
The smear of diestrous is characterized by some neutrophils and a few small degenerated, irregularly shaped epithelial cells.
The microscopic image of the smear contains a moderate number of epithelial cells with large nuclei, which are usually visible as cell clusters.
The lamina propria leukocytes migrate into the epithelium. The smear is characterized by many big horny epithelial cells.
In metestrous stage, masses of polymorphonuclear cells with some cornified epithelial cells in the smear will become visible.

SMILES	Rat Anti-ovulatory Activity Days +/− 2
C#C[C@]1(OC(=O)CCC)CCC2C3CCC4=CC(=O)CCC4C3CC[C@@]21CC (some centres unmarked) [EC600 LB, Levonorgestrel butanoate, reference compound]	33 days
C#C[C@]1(OC(=O)COc2cc(C)on2)CCC2C3CCC4=CC(=O)CCC4C3CC[C@@]21CC (some centres unmarked) [EC652]	27 days
C#C[C@]1(OC(=O)COc2ccc(-c3ccccc3)cc2)CCC2C3CCC4=CC(=O)CCC4C3CC[C@@]21CC (some centres unmarked) [EC655]	37 days
C#C[C@]1(OC(=O)CSc2ccccc2)CCC2C3CCC4=CC(=O)CCC4C3CC[C@@]21CC (some centres unmarked) [EC647]	20 days
C#C[C@]1(OC(=O)COc2ccccc2Cl)CCC2C3CCC4=CC(=O)CCC4C3CC[C@@]21CC (some centres unmarked) [EC633]	16.3 days
C#C[C@]1(OC(=O)COc2ccc(S(N)(=O)=O)c(Cl)c2)CCC2C3CCC4=CC(=O)CCC4C3CC[C@@]21CC (some centres unmarked) [EC650]	18.5 days
C#C[C@]1(OC(=O)COc2ccccc2)CCC2C3CCC4=CC(=O)CCC4C3C(=C)C[C@@]21CC (some centres unmarked) [EC651]	52 days
C#C[C@]1(OC(=O)COc2ccc(S(N)(=O)=O)c(F)c2)CCC2C3CCC4=CC(=O)CCC4C3CC[C@@]21CC (some centres unmarked) [EC653]	15 days
C#C[C@]1(OC(=O)COc2ccccc2F)CCC2C3CCC4=CC(=O)CCC4C3CC[C@@]21CC (some centres unmarked) [EC642]	41 days
C#C[C@]1(OC(=O)COc2ccc(S(N)(=O)=O)cc2Cl)CCC2C3CCC4=CC(=O)CCC4C3CC[C@@]21CC (some centres unmarked) [EC648]	18 days
C#C[C@]1(OC(=O)[C@H](C)Oc2ccccc2)CCC2C3CCC4=CC(=O)CCC4C3CC[C@@]21CC (some centres unmarked) [EC638]	8 days
C#C[C@]1(OC(=O)COc2ccccc2)CCC2C3CCC4=CC(=O)CCC4C3CC[C@@]21CC (some centres unmarked) [EC625]	43 days
C#C[C@]1(OC(=O)COc2ccc(S(N)(=O)=O)cc2)CCC2C3CCC4=CC(=O)CCC4C3CC[C@@]21CC (some centres unmarked) [EC624]	20.5 days
C#C[C@]1(OC(=O)COc2ccc(S(C)(=O)=O)cc2)CCC2C3CCC4=CC(=O)CCC4C3CC[C@@]21CC (some centres unmarked) [EC645]	31 days
C#C[C@]1(OC(=O)CNc2ccccc2)CCC2C3CCC4=CC(=O)CCC4C3CC[C@@]21CC (some centres unmarked) [EC646]	13 days
C#C[C@]1(OC(=O)COc2cccc(-c3ccccc3)c2)CCC2C3CCC4=CC(=O)CCC4C3CC[C@@]21CC (some centres unmarked) [EC654]	8 days

SMILES	Rat Anti-ovulatory Activity Days +/− 2
C#C[C@]1(OC(=O)COc2cccc(OC)c2)CCC2C3CCC4=CC(=O)CCC4C3CC[C@@]21CC (some centres unmarked) [EC636]	13 days
C#C[C@]1(OC(=O)COc2ccc(Cl)cc2)CCC2C3CCC4=CC(=O)CCC4C3CC[C@@]21CC (some centres unmarked) [EC631]	33.5 days
C#C[C@]1(OC(=O)COc2ccccc2OC)CCC2C3CCC4=CC(=O)CCC4C3CC[C@@]21CC (some centres unmarked) [EC635]	13 days
C#C[C@]1(OC(=O)COc2ccc(C#N)cc2)CCC2C3CCC4=CC(=O)CCC4C3CC[C@@]21CC (some centres unmarked) [EC658]	29 days
CC(=O)O[C@]1(C(C)=O)CC[C@H]2[C@@H]3C[C@H](C)C4=CC(=O)CC[C@]4(C)[C@H]3CC[C@@]21C [MPA, medroxyprogesterone acetate, reference compound]	22 days
C#C[C@]1(OC(=O)COc2ccccc2C)CCC2C3CCC4=CC(=O)CCC4C3CC[C@@]21CC (some centres unmarked) [EC632]	8.5 days
C#C[C@]1(OC(=O)CCc2ccccc2OC)CCC2C3CCC4=CC(=O)CCC4C3CC[C@@]21CC (some centres unmarked) [EC643]	3 days
C#C[C@]1(OC(=O)COc2ccc(OC)cc2)CCC2C3CCC4=CC(=O)CCC4C3CC[C@@]21CC (some centres unmarked) [EC634]	30 days
C[C@H](O)C(=O)[C@@]1(C)CCC2C3CCC4=CC(=O)CCC4=C3CC[C@@]21C (some centres unmarked) [EC213 TMG, reference compound]	19 days
C#C[C@]1(OC(=O)COc2cccc(F)c2)CCC2C3CCC4=CC(=O)CCC4C3CC[C@@]21CC (some centres unmarked) [EC639]	31 days
C#C[C@]1(OC(=O)COc2cccnc2)CCC2C3CCC4=CC(=O)CCC4C3CC[C@@]21CC (some centres unmarked) [EC641]	23 days
C#C[C@]1(OC(=O)COc2ccc3c(c2)OCO3)CCC2C3CCC4=CC(=O)CCC4C3CC[C@@]21CC (some centres unmarked) [EC644]	20 days
C#C[C@]1(OC(=O)COc2cccc(S(N)(=O)=O)c2)CCC2C3CCC4=CC(=O)CCC4C3CC[C@@]21CC (some centres unmarked) [EC601]	10 days
C#C[C@]1(OC(=O)COc2ccc(S(N)(=O)=O)cc2C)CCC2C3CCC4=CC(=O)CCC4C3CC[C@@]21CC (some centres unmarked) [EC649]	18.5 days
C#C[C@]1(OC(=O)COc2ccc(F)cc2)CCC2C3CCC4=CC(=O)CCC4C3CC[C@@]21CC (some centres unmarked) [EC640]	31 days

Same assay, conditions: 4 mg/rat, single s.c. injection of milled suspension, adult female rats, vaginal smear until cycling re-established

SMILES	Rat Anti-ovulatory Activity Days +/− 2
C#C[C@]1(OC(=O)COc2ccc(C)cc2)CCC2C3CCC4=CC(=O)CCC4C3CC[C@@]21CC (some centres unmarked) [EC629]	44.8 days
C#C[C@]1(OC(=O)COc2cccc(C)c2)CCC2C3CCC4=CC(=O)CCC4C3CC[C@@]21CC (some centres unmarked) [EC628]	36 days
C#C[C@]1(OC(=O)CCc2ccccc2)CCC2C3CCC4=CC(=O)CCC4C3CC[C@@]21CC (some centres unmarked) [EC626]	20 days
C#C[C@]1(OC(=O)COc2ccccc2)CCC2C3CCC4=CC(=O)CCC4C3CC[C@@]21CC (some centres unmarked) [EC625]	69 days
C#C[C@]1(OC(=O)COc2cccc(Cl)c2)CCC2C3CCC4=CC(=O)CCC4C3CC[C@@]21CC (some centres unmarked) [EC630]	46.5 days
CC(=O)O[C@]1(C(C)=O)CC[C@H]2[C@@H]3C[C@H](C)C4=CC(=O)CC[C@]4(C)[C@H]3CC[C@@]21C [MPA, medroxyprogesterone acetate, reference compound]	40 days
C#C[C@]1(OC(=O)/C=C/c2ccccc2)CCC2C3CCC4=CC(=O)CCC4C3CC[C@@]21CC (some centres unmarked) [EC627]	6 days
C#C[C@]1(OC(=O)COc2cccc(S(N)(=O)=O)c2)CCC2C3CCC4=CC(=O)CCC4C3CC[C@@]21CC (some centres unmarked) [EC601]	34 days

From patent publication US20190117670A1, “LONGER-ACTING PROGESTIN PRODRUG CONTRACEPTIVES” (Evestra, Inc., priority 2017, published 2019)
